# Test results: ChEMBL document CHEMBL1149172, “BREED: Generating novel inhibitors through hybridization of known ligands. Application to CDK2, p38, and HIV protease” (J Med Chem, 2004)
# Biological target: Human immunodeficiency virus type 1 protease (Human immunodeficiency virus 1, UniProt Q72874)
# Assay: Inhibitory activity against HIV-I protease was determined
row,Compound,Ki [nM]
1,CC(C)CN(C[C@@H](O)[C@H](Cc1ccccc1)NC(=O)[C@H](CC(N)=O)NC(=O)c1ccc2ccccc2n1)S(=O)(=O)N1ONc2ccccc21,0.1
2,CC(C)CN(C[C@@H](O)[C@H](Cc1ccccc1)NC(=O)O[C@H]1CCOC1)S(=O)(=O)NC(C)(C)C,42
